As usually defined, the IC50 is the midpoint of a concentration-inhibition curve.

IC50 data for twelve compounds are collected here from US7829567B2, “Imino-indeno[1,2-c] quinoline derivatives, their preparation processes, and pharmaceutical compositions comprising the same” (Kaohsiung Medical University, priority 2007, dated 2010).

Holding throughout (type): cell-based
Experiment [1] has as its system esophageal carcinoma (CE81T). Put plainly: In vitro anticancer assay (MTT), CE81T. Conditions: CE81T cells, 48 hrs, mean ± spread, read-out: Anti-proliferative evaluation IC50, CE81T. The method, then: (§1) The resultant tetrazolium salt was then dissolved by the addition of dimethyl sulfoxide. Color was measured spectrophotometrically in a microtiter plate reader at 570 nm and used as a relative measure of viable cell number. The number of viable cells after treatment was compared to solvent and untreated control cells and used to determine the percent of control growth as (Abtreated/Abcontrol)×100, where Ab represents the mean absorbance (n=3). […] D. Heo et al. […] (+)-camptothecin (CPT) and doxorubicin hydrochloride (Dox) were used for comparison with the compounds according to this invention.

Experiment [2] relates to human stomach adenocarcinoma (AGS). Put plainly: In vitro anticancer assay (MTT), AGS. The following applies: AGS cells, 48 hrs, mean ± spread, read-out: Anti-proliferative evaluation IC50, AGS. As for the experimental part:
as §1

In experiment [3] the test system is hepatocellular carcinoma (SKHep1). The experiment is described as follows: In vitro anticancer assay (MTT), SKHep1. The following applies: SKHep1 cells, 48 hrs, mean ± spread, read-out: Anti-proliferative evaluation IC50, SKHep1. The method, then: as §1
For experiment [4], the system named is human cervical epithelioid carcinoma (HeLa). The experiment is described as follows: In vitro anticancer assay (MTT), HeLa. Conditions: HeLa cells, 48 hrs, mean ± spread, read-out: Anti-proliferative evaluation IC50, HeLa. As for the experimental part:
as §1

For experiment [5], the system named is human renal clear cell carcinoma. The experiment is described as follows: In vitro anticancer assay (MTT), RCC 768-O. The following applies: RCC 768-O cells, 48 hrs, mean ± spread, read-out: Anti-proliferative evaluation IC50, RCC 768-O. As for the experimental part: as §1
For experiment [6], the system named is oral squamous cell carcinoma (SAS). Put plainly: In vitro anticancer assay (MTT), SAS. Conditions: SAS cells, 48 hrs, mean ± spread, read-out: Anti-proliferative evaluation IC50, SAS. The method, then: as §1

With `COc1ccc2c(c1)C(=O)c1c-2c(N2CCN(C(=O)CNCCNCCN)CC2)nc2ccccc12` [Compound 5qq], the IC50 in experiment [1] is above 30 µM; in experiment [2] it was 15.5 ± 1.5 µM; in experiment [3], above 30 µM; in experiment [4], above 30 µM; in experiment [5], above 30 µM; in experiment [6] it was above 30 µM.

For `COc1ccc2c(c1)C(=O)c1c-2c(N2CCN(C(=O)CNCCNCCO)CC2)nc2ccccc12` [Compound 5rr], the concentration for half-maximal inhibition (IC50) in experiment [1] was determined as 6.6 ± 1.9 µM; in experiment [2], 3.5 ± 1.1 µM; in experiment [3] it was 11.9 ± 2.5 µM; in experiment [4] it was 6.6 ± 1.3 µM; in experiment [5], 7.6 ± 0.1 µM; in experiment [6], 8.6 ± 0.9 µM.

For `COc1ccc2c(c1)C(=O)c1c-2c(N2CCN(C(=O)CNCCCN(C)CCCN)CC2)nc2ccccc12` [Compound 5ss], the IC50 in experiment [1] is above 30 µM; in experiment [2], 12.5 ± 5.2 µM; in experiment [3], 21.5 ± 7 µM; in experiment [4] it was above 30 µM; in experiment [5] it was 10.8 ± 1.1 µM; in experiment [6], above 30 µM.

For `COc1ccc2c(c1)C(=O)c1c-2c(N2CCN(C(=O)CN3CCNCC3)CC2)nc2ccccc12` [Compound 5tt], the IC50 in experiment [1] was 7.2 ± 1.8 µM; in experiment [2] it was 3.4 ± 0.4 µM; in experiment [3], 2.2 ± 1.3 µM; in experiment [4], above 30 µM; in experiment [5] it was 4 ± 1.5 µM; in experiment [6], 7.4 ± 1.1 µM.

For `COc1ccc2c(c1)C(=O)c1c-2c(N2CCN(C(=O)CN3CCOCC3)CC2)nc2ccccc12` [Compound 5uu], the half-inhibitory concentration (IC50) was above 30 µM in experiment [1]; 21.4 ± 0.2 µM in experiment [2]; 19.9 ± 10 µM in experiment [3]; 18 ± 8.1 µM in experiment [4]; above 30 µM in experiment [5]; above 30 µM in experiment [6].

In the case of `COc1ccc2c(c1)C(=O)c1c-2c(N2CCC(N)C2)nc2ccccc12` (stereo not drawn) [Compound 5v], the IC50 in experiment [1] is above 30 µM; in experiment [2], above 30 µM; in experiment [3] it was 26.9 ± 19.5 µM; in experiment [4], above 30 µM; in experiment [5], above 30 µM; in experiment [6], above 30 µM.

Regarding `COc1ccc2c(c1)C(=O)c1c-2c(N2CCN(C(=O)CNCCN3CCNCC3)CC2)nc2ccccc12` [Compound 5vv], the IC50 in experiment [1] was determined as 8.4 ± 2 µM; in experiment [2], 7.3 ± 0.1 µM; in experiment [3], 6.4 ± 0.6 µM; in experiment [4], 5.4 ± 2 µM; in experiment [5], 5.6 ± 0.9 µM; in experiment [6] it was 8.9 ± 0.1 µM.

In the case of `COc1ccc2c(c1)C(=O)c1c-2c(N2CCC(N)CC2)nc2ccccc12` [Compound 5w], the 50% inhibitory concentration (IC50) is 1.4 ± 0.7 µM in experiment [1]; 7.4 ± 0.6 µM in experiment [2]; 2.6 ± 0.9 µM in experiment [3]; 1.1 ± 0.3 µM in experiment [4]; 5.3 ± 1 µM in experiment [5]; 8.4 ± 2.6 µM in experiment [6].

For the compound `COc1ccc2c(c1)C(=O)c1c-2c(N2CCN(C(=O)CCO)CC2)nc2ccccc12` [Compound 5ww], the IC50 was above 30 µM in experiment [1]; 9.5 ± 0.3 µM in experiment [2]; 21.9 ± 6.4 µM in experiment [3]; 10.6 ± 1.6 µM in experiment [4]; 18.5 ± 2.1 µM in experiment [5]; above 30 µM in experiment [6].

On to `CNCCC(=O)N1CCN(c2nc3ccccc3c3c2-c2ccc(OC)cc2C3=O)CC1` [Compound 5xx], for which the half-inhibitory concentration (IC50) in experiment [1] was found to be 3.8 ± 0.6 µM; in experiment [2], 8.1 ± 1.1 µM; in experiment [3], 9.1 ± 4.8 µM; in experiment [4], 1.9 ± 0.8 µM; in experiment [5], 6 ± 1.4 µM; in experiment [6] it was 6.9 ± 0.7 µM.

Consider `COc1ccc2c(c1)C(=O)c1c-2c(N2CCNC(C)C2)nc2ccccc12` (stereo not drawn) [Compound 5y], for which the IC50 in experiment [1] was determined as 3.3 ± 2.2 µM; in experiment [2], 7.9 ± 1.2 µM; in experiment [3], 2.9 ± 0.5 µM; in experiment [4], 3.4 ± 1 µM; in experiment [5], 13.6 ± 5.5 µM; in experiment [6], 13.4 ± 2.6 µM.

In the case of `COc1ccc2c(c1)C(=O)c1c-2c(N2CCN(C(=O)CCN(C)C)CC2)nc2ccccc12` [Compound 5yy], the IC50 in experiment [1] was above 30 µM; in experiment [2], 8.1 ± 1.1 µM; in experiment [3], 16.6 ± 2 µM; in experiment [4] it was 11.7 ± 1.7 µM; in experiment [5], 11.5 ± 1.8 µM; in experiment [6] it was 17 ± 2.9 µM.
